The assay concerns the target T1, TRPC5 (Homo sapiens, UniProt Q9UL62).
T1 sequence (Q9UL62 1-973): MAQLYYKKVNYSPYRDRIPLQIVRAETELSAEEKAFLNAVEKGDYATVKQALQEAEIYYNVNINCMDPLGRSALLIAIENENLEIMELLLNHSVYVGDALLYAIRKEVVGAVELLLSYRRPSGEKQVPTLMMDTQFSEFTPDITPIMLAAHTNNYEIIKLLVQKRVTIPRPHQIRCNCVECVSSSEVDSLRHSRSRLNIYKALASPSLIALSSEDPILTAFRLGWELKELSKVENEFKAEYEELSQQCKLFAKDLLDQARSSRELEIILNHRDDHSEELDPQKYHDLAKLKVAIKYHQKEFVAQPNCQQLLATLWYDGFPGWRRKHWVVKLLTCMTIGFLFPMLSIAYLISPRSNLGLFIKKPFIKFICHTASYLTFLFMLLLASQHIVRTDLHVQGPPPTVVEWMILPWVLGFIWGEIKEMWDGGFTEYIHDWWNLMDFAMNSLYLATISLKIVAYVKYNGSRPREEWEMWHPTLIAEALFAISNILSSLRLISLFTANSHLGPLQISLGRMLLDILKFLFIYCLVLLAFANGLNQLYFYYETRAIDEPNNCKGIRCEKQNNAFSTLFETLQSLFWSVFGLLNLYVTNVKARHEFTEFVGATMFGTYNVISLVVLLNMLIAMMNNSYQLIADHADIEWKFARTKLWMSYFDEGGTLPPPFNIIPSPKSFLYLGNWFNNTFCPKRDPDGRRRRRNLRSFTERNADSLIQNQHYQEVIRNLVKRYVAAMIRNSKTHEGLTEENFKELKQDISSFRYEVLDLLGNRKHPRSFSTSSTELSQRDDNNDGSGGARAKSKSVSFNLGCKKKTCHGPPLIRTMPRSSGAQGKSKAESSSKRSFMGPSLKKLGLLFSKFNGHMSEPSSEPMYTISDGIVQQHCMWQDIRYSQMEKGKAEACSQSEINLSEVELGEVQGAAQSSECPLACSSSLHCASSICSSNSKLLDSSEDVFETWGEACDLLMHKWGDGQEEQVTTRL
The assay is classed as cell-based.

SMILES strings stand for the structures.

In turn, `CC(=O)[C@H]1CC[C@H]2[C@@H]3CCC4=CC(=O)CC[C@]4(C)[C@H]3CC[C@]12C` [prog, progesterone] yielded a concentration for half-maximal inhibition (IC50) of 5 µM.

A word on the IC50: it is the point on the concentration scale where inhibition reaches its midpoint. Read a high IC50 as weaker potency in that assay.

For the origin of these results see article PMC3057289 (2011).
